Where a name gives a salt, the structure may show the parent alone.
B1: Simtuzumab: a monoclonal antibody against LOXL2 (antibody, chains of the INN, looked up, V domains shown)
VH: QVQLVQSGAEVKKPGASVKVSCKASGYAFTYYLIEWVRQAPGQGLEWIGVINPGSGGTNYNEKFKGRATITADKSTSTAYMELSSLRSEDTAVYFCARNWMNFDYWGQGTTVTVSS
VL: DIVMTQTPLSLSVTPGQPASISCRSSKSLLHSNGNTYLYWFLQKPGQSPQFLIYRMSNLASGVPDRFSGSGSGTDFTLKISRVEAEDVGVYYCMQHLEYPYTFGGGTKVEIK

Key:
[1] = system: mouse bleomycin-mediated lung injury model; conditions: cited from earlier work
[2] = system: liver and cardiacfibrosis; conditions: in vivo; cited from earlier work
[3] = system: UUO animal model causing kidney disease; conditions: cited from earlier work
[4] = biological target: T1, recombinant human MAO-B (monoamine oxidase-B) (Homo sapiens, UniProt P27338); test: Amplex Red HRP-coupled amine oxidase assay, recombinant human MAO-B; format: biochemical; conditions: 1 mM benzylamine substrate, read-out: Inhibitory activity (IC50, nM) MAO-B
T1 construct: purchased Sigma-Aldrich
T1 sequence (P27338 1-520): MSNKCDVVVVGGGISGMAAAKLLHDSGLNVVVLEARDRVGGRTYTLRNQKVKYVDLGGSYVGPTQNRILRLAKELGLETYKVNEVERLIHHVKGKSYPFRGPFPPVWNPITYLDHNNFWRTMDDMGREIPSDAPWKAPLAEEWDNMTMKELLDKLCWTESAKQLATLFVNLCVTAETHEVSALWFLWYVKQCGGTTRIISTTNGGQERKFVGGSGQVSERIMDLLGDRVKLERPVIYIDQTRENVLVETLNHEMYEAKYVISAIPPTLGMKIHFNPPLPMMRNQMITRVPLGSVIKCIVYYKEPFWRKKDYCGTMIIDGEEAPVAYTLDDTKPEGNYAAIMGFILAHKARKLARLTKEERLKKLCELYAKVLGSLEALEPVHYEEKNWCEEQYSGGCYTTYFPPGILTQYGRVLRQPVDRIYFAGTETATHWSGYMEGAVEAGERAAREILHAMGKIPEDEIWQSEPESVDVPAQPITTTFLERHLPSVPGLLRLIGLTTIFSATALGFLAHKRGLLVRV
Method in brief: (§1)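 Enzyme preincubated 60 min at 37 °C with compound (six-point curve, 1% DMSO final) in 50 mM sodium phosphate pH 7.4, then Amplex Red 400 μM and HRP 2 U/mL added with substrate: MAO-A 0.5 mM tyramine, MAO-B 1 mM benzylamine, DAO 1 mM putrescine. Resorufin fluorescence read after 1 h; IC50 by four-parameter logistic fit.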

[5] = biological target: T2, recombinant human DAO (diamine oxidase) (Homo sapiens, UniProt P19801); test: Amplex Red HRP-coupled amine oxidase assay, recombinant human DAO; format: biochemical; conditions: 1 mM putrescine substrate, read-out: Inhibitory activity (IC50, nM) DAO
T2 construct: purchased R&D systems
T2 sequence (P19801 20-751): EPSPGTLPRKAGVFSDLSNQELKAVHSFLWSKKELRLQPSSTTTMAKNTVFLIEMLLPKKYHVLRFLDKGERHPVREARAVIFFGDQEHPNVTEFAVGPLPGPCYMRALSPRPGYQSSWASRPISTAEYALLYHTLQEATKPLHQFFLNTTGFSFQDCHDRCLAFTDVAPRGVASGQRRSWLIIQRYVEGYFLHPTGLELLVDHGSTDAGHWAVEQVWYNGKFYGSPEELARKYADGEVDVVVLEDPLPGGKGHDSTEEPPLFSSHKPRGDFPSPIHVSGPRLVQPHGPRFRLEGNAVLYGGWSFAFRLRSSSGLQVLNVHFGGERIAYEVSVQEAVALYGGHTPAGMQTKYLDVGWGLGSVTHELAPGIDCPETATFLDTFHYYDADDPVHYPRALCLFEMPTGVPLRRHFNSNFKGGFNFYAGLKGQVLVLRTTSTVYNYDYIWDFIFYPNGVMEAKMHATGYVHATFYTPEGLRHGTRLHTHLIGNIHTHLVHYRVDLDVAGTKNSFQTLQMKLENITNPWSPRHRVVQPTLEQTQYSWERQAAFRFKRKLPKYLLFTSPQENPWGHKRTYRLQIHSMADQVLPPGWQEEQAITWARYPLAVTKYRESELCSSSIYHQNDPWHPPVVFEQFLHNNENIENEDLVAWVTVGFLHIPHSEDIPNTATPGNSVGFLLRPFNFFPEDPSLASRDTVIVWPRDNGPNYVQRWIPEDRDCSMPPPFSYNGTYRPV
Method in brief: as §1

[6] = biological target: T3, recombinant human Lysyl Oxidase-Like 2 (LOXL2) (Homo sapiens, UniProt Q9Y4K0); test: Amplex Red HRP-coupled amine oxidase assay, recombinant human LOXL2; format: biochemical; conditions: 60 min incubation with enzyme at 37° C., putrescine substrate, read-out: Inhibitory activity (IC50, nM) human LOXL2
T3 construct: purchased R&D systems
T3 sequence (Q9Y4K0 26-774): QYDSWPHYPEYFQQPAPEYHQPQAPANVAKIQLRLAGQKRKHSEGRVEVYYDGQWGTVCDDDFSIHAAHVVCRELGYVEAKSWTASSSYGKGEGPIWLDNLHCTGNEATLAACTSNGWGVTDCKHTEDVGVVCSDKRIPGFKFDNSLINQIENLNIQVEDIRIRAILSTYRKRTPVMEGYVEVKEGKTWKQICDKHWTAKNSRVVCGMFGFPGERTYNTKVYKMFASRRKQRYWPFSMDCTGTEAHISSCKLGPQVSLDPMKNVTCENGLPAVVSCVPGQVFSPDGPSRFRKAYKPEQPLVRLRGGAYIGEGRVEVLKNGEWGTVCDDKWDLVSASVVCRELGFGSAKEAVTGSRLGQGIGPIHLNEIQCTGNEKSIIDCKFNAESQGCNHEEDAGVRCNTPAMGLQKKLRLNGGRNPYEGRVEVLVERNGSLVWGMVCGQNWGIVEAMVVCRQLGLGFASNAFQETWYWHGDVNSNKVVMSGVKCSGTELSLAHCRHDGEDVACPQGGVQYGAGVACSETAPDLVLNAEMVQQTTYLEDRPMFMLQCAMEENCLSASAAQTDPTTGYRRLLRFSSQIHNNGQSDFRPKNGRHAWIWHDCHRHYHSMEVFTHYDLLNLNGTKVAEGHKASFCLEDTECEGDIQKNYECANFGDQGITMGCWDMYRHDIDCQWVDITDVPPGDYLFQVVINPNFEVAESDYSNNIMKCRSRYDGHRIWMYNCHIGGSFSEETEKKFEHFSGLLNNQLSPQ
Method in brief: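 Putrescine substrate (30 mM) in 50 mM sodium phosphate pH 7.4, 37 °C; compounds preincubated 60 min with enzyme, 1% DMSO final, six-point curves. H2O2 detected via 400 μM Amplex Red/2 U/mL HRP, fluorescence (ex 530/em 590 nm) after 1 h; IC50 from four-parameter logistic fit of % signal reduction.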

[7] = biological target: T4, recombinant human MAO-A (monoamine oxidase-A) (Homo sapiens, UniProt P21397); test: Amplex Red HRP-coupled amine oxidase assay, recombinant human MAO-A; format: biochemical; conditions: 0.5 mM tyramine substrate, read-out: Inhibitory activity (IC50, nM) MAO-A
T4 construct: purchased Sigma-Aldrich
T4 sequence (P21397 1-527): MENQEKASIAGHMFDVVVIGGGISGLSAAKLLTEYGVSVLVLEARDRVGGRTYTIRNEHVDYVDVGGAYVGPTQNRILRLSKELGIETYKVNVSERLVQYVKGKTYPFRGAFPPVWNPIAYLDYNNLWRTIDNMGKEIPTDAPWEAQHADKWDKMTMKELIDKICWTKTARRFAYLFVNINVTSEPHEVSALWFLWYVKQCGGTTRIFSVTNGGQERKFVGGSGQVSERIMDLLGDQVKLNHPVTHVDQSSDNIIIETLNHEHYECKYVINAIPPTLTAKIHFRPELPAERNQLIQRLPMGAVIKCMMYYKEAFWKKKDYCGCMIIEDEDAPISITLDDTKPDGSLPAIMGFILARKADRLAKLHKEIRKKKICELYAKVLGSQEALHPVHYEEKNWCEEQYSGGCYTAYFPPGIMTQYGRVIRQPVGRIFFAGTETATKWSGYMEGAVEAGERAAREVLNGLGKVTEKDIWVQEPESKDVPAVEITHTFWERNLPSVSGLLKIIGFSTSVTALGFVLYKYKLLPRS
Method in brief: as §1

[8] = system: NASH patients with advanced liver fibrosis and liver cirrhosis; conditions: after 4 years of the treatment; cited from earlier work

Molecule | IC50 [4] | IC50 [5] | IC50 [6] | IC50 [7] | also measured
NCc1cc(Oc2cccc(C(=O)N3C[C@@H](O)[C@H](F)C3)c2)nc(C(F)(F)F)c1 [PAT-1251] | – | – | – | – | fibrosis [1]: significantly reduced fibrosis
N#CCCN [β-Aminopropionitrile] | – | – | – | – | liver and cardiac fibrosis [2]: improve liver and cardiacfibrosis
NC/C=C(\F)CS(=O)(=O)c1cccc2cccnc12 [PXS-5505] | – | – | – | – | renal fibrosis [3]: significantly reduced renal fibrosis
N#Cc1cc(-c2ccn(CCO)n2)c2ncn(C/C(F)=C/CN)c2c1 [Example 195, (Z)—1-(4-amino-2-fluorobut-2-en-1-yl)-4-(1-(2-hydroxyethyl)-1H-pyrazol-3-yl)-1H-benzo[d]imidazol-6-carbonitrile hydrochloride] | > 100000 nM | 5560 nM | 159 nM | > 100000 nM | –
CCS(=O)(=O)c1cccc(-c2cc(C(=O)OC)cc3c2ncn3C/C(F)=C/CN)c1 [Example 34, methyl (Z)-1-(4-amino-2-fluorobut-2-en-1-yl)-4-(3-(ethylsulfonyl)phenyl)-1H-benzo[d]imidazol-6-carboxylate hydrochloride] | > 100000 nM | 495 nM | 37.6 nM | > 100000 nM | –
B1 | – | – | – | – | histological efficacy [8]: failure to prove histological efficacy

— patent US12686665B2, “Bicyclic fused ring derivative or salt thereof and pharmaceutical composition comprising same” (YUHAN CORPORATION, priority 2021, dated 2026)
